Data taken from PubChem BioAssay (NCI).
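Dose response: 5 concentrations. Exposure: 48 h. Format: 96-well plates. Endpoint: linear interpolation; highest concentration if not reached. GI50 is the concentration that inhibits growth by half. TGI is the concentration that stops growth completely.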

Assays:
Assay in all cases: growth of human tumour cells (NCI), 48 h
786-0 renal = test system: 786-0 renal
BT-549 breast = test system: BT-549 breast
LOX IMVI melanoma = test system: LOX IMVI melanoma
MCF7 breast = test system: MCF7 breast
MDA-MB-435 = test system: MDA-MB-435
OVCAR-5 ovarian = test system: OVCAR-5 ovarian
SF-539 CNS = test system: SF-539 CNS
SK-MEL-5 melanoma = test system: SK-MEL-5 melanoma
UACC-62 melanoma = test system: UACC-62 melanoma
SR leukemia = test system: SR leukemia

SMILES	TGI (786-0 renal)	TGI (BT-549 breast)	TGI (LOX IMVI melanoma)	TGI (MCF7 breast)	TGI (MDA-MB-435)	TGI (OVCAR-5 ovarian)	TGI (SF-539 CNS)	TGI (SK-MEL-5 melanoma)	TGI (UACC-62 melanoma)	TGI (SR leukemia)	GI50 (LOX IMVI melanoma)	GI50 (MCF7 breast)	GI50 (OVCAR-5 ovarian)	GI50 (SK-MEL-5 melanoma)	GI50 (UACC-62 melanoma)
Clc1ccc(Nc2nnc(CNc3ccc(-c4nnc(Nc5ccc(Cl)cc5)o4)cc3)o2)cc1	21.8 µM	38.6 µM	20.7 µM	34.9 µM	30.6 µM	40.7 µM	36.3 µM	33.4 µM	27.8 µM	–	–	–	–	–	–
COC(=O)C1Cc2c([nH]c3ccccc23)-c2[nH]c3ccccc3c2CC(NC(C)=O)C(=O)N2CCCC2C(=O)N1 (stereo unspecified)	> 100 µM	–	> 100 µM	> 100 µM	> 100 µM	> 100 µM	> 100 µM	> 100 µM	> 100 µM	> 100 µM	–	–	–	–	–
O=C(CSc1nnc(-c2ccc(N=Cc3ccc(Cl)cc3)cc2)o1)Nc1cccc([N+](=O)[O-])c1	> 100 µM	–	> 100 µM	–	–	–	–	> 100 µM	> 100 µM	> 100 µM	–	–	–	–	–
O=C1C(=Cc2ccc([N+](=O)[O-])o2)C(=O)N(CCc2ccccc2)S(=O)(=O)N1CCc1ccccc1	40.3 µM	–	35 µM	–	–	> 100 µM	> 100 µM	44.1 µM	31 µM	38.4 µM	–	–	–	–	–
CCOC(=O)C1=C(O)c2ccc(OC)cc2C(=O)C1=O	> 100 µM	–	> 100 µM	–	–	> 100 µM	> 100 µM	> 100 µM	> 100 µM	> 100 µM	–	–	–	–	–
O=C1C(Cl)C(c2ccc([N+](=O)[O-])cc2)N1n1cnc2ccccc2c1=O (stereo unspecified)	> 100 µM	–	> 100 µM	–	–	> 100 µM	–	> 100 µM	> 100 µM	–	–	–	–	–	–
CON(C(=O)OC(C)(C)C)c1ccccc1	> 100 µM	> 100 µM	> 100 µM	–	> 100 µM	> 100 µM	–	> 100 µM	> 100 µM	> 100 µM	–	–	–	–	–
O=C1NC(Cc2ccccc2)C(=O)N2CCCC12 (stereo unspecified)	> 100 µM	–	> 100 µM	–	–	> 100 µM	> 100 µM	> 100 µM	> 100 µM	> 100 µM	–	–	–	–	–
N/C(=N/N=C/c1cccc(F)c1)NO	> 100 µM	–	97.7 µM	–	–	> 100 µM	70 µM	32.4 µM	41 µM	> 100 µM	–	–	–	–	–
N#CC(C#N)C1CN2CCC1CC2 (stereo unspecified)	> 100 µM	–	> 100 µM	> 100 µM	> 100 µM	> 100 µM	> 100 µM	> 100 µM	> 100 µM	> 100 µM	–	–	–	–	–
COc1ccc(N2C(=O)C3C=CC(n4[nH]c(=O)n(Cc5ccccc5)c4=O)CC3C2=O)cc1 (stereo unspecified)	> 100 µM	–	> 100 µM	–	–	> 100 µM	> 100 µM	> 100 µM	> 100 µM	–	–	–	–	–	–
CC(=O)Nc1ccc(C(=O)n2[nH]c(C)c(/C=C3\C(=O)C=Cc4ccccc43)c2=O)cc1	> 100 µM	–	> 100 µM	–	–	> 100 µM	> 100 µM	> 100 µM	–	> 100 µM	–	–	–	–	–
Cc1cc(=O)[nH]c(NNC(C#N)c2ccc(N(C)C)cc2)n1 (stereo unspecified)	> 100 µM	–	> 100 µM	–	–	> 100 µM	> 100 µM	> 100 µM	> 100 µM	> 100 µM	–	–	–	–	–
Cc1cc(N)c2cc(NC(=O)Nc3ccc4nc(C)cc(N)c4c3)ccc2n1	> 100 µM	> 100 µM	> 100 µM	> 100 µM	> 100 µM	> 100 µM	–	> 100 µM	> 100 µM	–	–	–	–	–	–
CCCCc1c2c(nc3c1CCCC3=O)CCCC2	> 100 µM	–	> 100 µM	–	–	–	> 100 µM	> 100 µM	–	> 100 µM	–	–	–	–	–
CCN(CCN(CC)C(=O)NC)C(=O)NC	> 100 µM	> 100 µM	> 100 µM	> 100 µM	–	> 100 µM	–	> 100 µM	> 100 µM	> 100 µM	–	–	–	–	–
COCC1N=C(c2cc(OC)c(OC)c(OC)c2-c2cc3c(cc2[C@@H](C)O)OCO3)O[C@H]1c1ccccc1 (stereo partly specified)	–	–	> 100 µM	> 100 µM	–	> 100 µM	> 100 µM	> 100 µM	> 100 µM	–	–	–	–	–	–
COc1cc(CC(=O)c2cc3c(cc2-c2ccccc2)OCO3)cc(OC)c1OC	> 100 µM	–	> 100 µM	–	–	> 100 µM	> 100 µM	27.1 µM	–	72.3 µM	–	–	–	–	–
COc1cccc(/C=N/NC(=O)CN(C)C)c1O	> 100 µM	> 100 µM	> 100 µM	> 100 µM	> 100 µM	> 100 µM	> 100 µM	> 100 µM	> 100 µM	–	–	–	–	–	–
CC(C)OC(=O)c1cccnc1/C=N/O	> 100 µM	–	> 100 µM	–	–	> 100 µM	> 100 µM	> 100 µM	> 100 µM	–	–	–	–	–	–

SMILES	TGI (786-0 renal)	TGI (BT-549 breast)	TGI (LOX IMVI melanoma)	TGI (MCF7 breast)	TGI (MDA-MB-435)	TGI (OVCAR-5 ovarian)	TGI (SF-539 CNS)	TGI (SK-MEL-5 melanoma)	TGI (UACC-62 melanoma)	TGI (SR leukemia)	GI50 (LOX IMVI melanoma)	GI50 (MCF7 breast)	GI50 (OVCAR-5 ovarian)	GI50 (SK-MEL-5 melanoma)	GI50 (UACC-62 melanoma)
Nc1ccn(CCCC(c2ccccc2)P(=O)(O)O)c(=O)n1 (stereo unspecified)	> 100 µM	–	> 100 µM	–	–	> 100 µM	> 100 µM	> 100 µM	> 100 µM	> 100 µM	–	–	–	–	–
O=P(Nc1cccc(Cl)c1)(Oc1ccccc1)N(CCCl)CCCl (stereo unspecified)	–	–	–	–	–	28.8 µM	31.2 µM	25.3 µM	24.4 µM	> 100 µM	–	–	–	–	–
CCOC(=O)[C@@]12NN=N[C@@H]1[C@H]1CO[C@H](c3ccccc3)N1C2=O	30.3 µM	25.9 µM	4.92 µM	25.3 µM	35.6 µM	31.8 µM	25.3 µM	24.5 µM	21.2 µM	–	–	–	–	–	–
CCSc1[nH]c(NC(=NC(C)C)NC(=O)c2ccccc2)c(C(N)=O)c1C(N)=O	> 10 µM	–	> 10 µM	> 10 µM	> 10 µM	–	–	> 10 µM	> 10 µM	> 10 µM	–	–	–	–	–
COc1cc(O)c2c(=O)c(OC)c(-c3ccc(OC)c(OC)c3)oc2c1.[Sn]	> 100 µM	> 100 µM	> 100 µM	> 100 µM	–	> 100 µM	> 100 µM	> 100 µM	> 100 µM	–	29.8 µM	> 100 µM	> 100 µM	32.9 µM	> 100 µM
C[C@]12CCC(=O)C=C1CC[C@@H]1C2CC[C@@]2(C)C1CC[C@@H]2OC(=O)C12OC1CCC2=O (stereo partly specified)	30 µM	–	31.1 µM	–	–	33.9 µM	36.6 µM	29.7 µM	35.2 µM	53.4 µM	–	–	–	–	–
O=C(c1cccnc1)N1N=C(c2ccc3c(c2)OCO3)CC1(O)c1cc(F)c(Cl)cc1Cl (stereo unspecified)	35.2 µM	47.9 µM	30.5 µM	–	> 100 µM	49.4 µM	33.6 µM	28.8 µM	–	76.4 µM	–	–	–	–	–
CCc1n[nH]c(=O)n1N=C(c1ccccc1)c1ccccc1	> 100 µM	> 100 µM	> 100 µM	> 100 µM	> 100 µM	> 100 µM	–	> 100 µM	> 100 µM	–	–	–	–	–	–
Cc1cc2c(cc1-c1cc3c(cc1C)C(C(C)C)=C(O)C(=O)/C3=C\Nc1ccccn1)/C(=C/Nc1ccccn1)C(=O)C(O)=C2C(C)C	> 100 µM	–	> 100 µM	> 100 µM	> 100 µM	> 100 µM	> 100 µM	> 100 µM	> 100 µM	> 100 µM	–	–	–	–	–
CN(C)CCNC(=O)c1cccc2[nH]c(-c3ccc(Cl)cc3)nc12	–	–	13.8 µM	15.8 µM	–	26.4 µM	16.9 µM	16.7 µM	17.5 µM	–	–	–	–	–	–
COC(=O)CC1NC(=O)C1C(C)(OC)OC (stereo unspecified)	> 100 µM	–	> 100 µM	–	–	–	> 100 µM	> 100 µM	> 100 µM	> 100 µM	–	–	–	–	–
COc1ccc(NC(=O)C2=CC(=O)c3ccc(O)cc3C2=O)c(OC)c1	> 100 µM	–	> 100 µM	–	–	> 100 µM	> 100 µM	> 100 µM	> 100 µM	> 100 µM	–	–	–	–	–
O=C1NC2OC(CO)C(O)C(O)C2O1 (stereo unspecified)	> 100 µM	–	> 100 µM	–	–	> 100 µM	> 100 µM	> 100 µM	> 100 µM	> 100 µM	–	–	–	–	–
O=C1CCc2ccccc2O1	> 100 µM	–	> 100 µM	> 100 µM	> 100 µM	> 100 µM	–	–	> 100 µM	> 100 µM	–	–	–	–	–
CC(C)(CO)NC(=O)c1cccs1	> 100 µM	–	> 100 µM	> 100 µM	> 100 µM	> 100 µM	–	> 100 µM	> 100 µM	> 100 µM	–	–	–	–	–
NNC(=S)NN/C=C(\C=Nc1ccccc1)[N+](=O)[O-]	> 100 µM	–	> 100 µM	–	–	> 100 µM	> 100 µM	–	> 100 µM	–	–	–	–	–	–
COc1ccc2nc3c([N+](=O)[O-])ccc(NCCCN(C)C)c3c(N)c2c1	2.6 µM	–	3.23 µM	2.5 µM	3.66 µM	2.75 µM	3.36 µM	3.63 µM	3.79 µM	4.23 µM	–	–	–	–	–
COc1ccc(/C=C(\C2=NC(=O)CS2)c2nc3ccccc3[nH]2)cc1	–	–	–	–	–	> 100 µM	41.9 µM	> 100 µM	> 100 µM	> 100 µM	–	–	–	–	–
Cc1ccc(S(=O)(=O)NCCCSCCO)cc1	–	–	> 100 µM	> 100 µM	> 100 µM	–	–	> 100 µM	–	> 100 µM	–	–	–	–	–
O=C1C(=O)N(C23CC4CC(CC(C4)C2)C3)C(=S)N1c1ccccc1	> 100 µM	–	> 100 µM	–	> 100 µM	> 100 µM	> 100 µM	> 100 µM	> 100 µM	> 100 µM	–	–	–	–	–
